Measured values published in US20140057881A1, “Composition for the Treatment of Skin Conditions” (priority 2010, published 2014).
Structures can show the parent of a compound that is named as a salt.

Key:
Format in all cases: in vivo, human
Details in all cases: patient history before treatment with Example 1
[1] = Case 7: topical treatment of a person
Excerpt: A person with several year history of an itchy rash on the dorsum of their right foot presented (see FIG. 7A). They had previously tried many creams including various antifungal treatments, antibiotics and steroids, Particularly, they had tried Kenacomb™ (Triamcinolone acetonide, nystatin, gramicidin, neomycin); Mometasone Furoate 0.1% (Elocon™); Terbinafine Hydrochloride 1.0% (Lamisil™); Clotrimazole (sold under the trade name Canestan™) and Mupirocin (2% w/w) (sold under the trade name Bactroban™). […] There were areas of broken skin with scattered scab formation.
A diagnosis of chronic dermatitis with lichenification was made and treatment commenced with the composition of Example 1.
In less than one week the rash had disappeared (FIG. 7B).

[2] = Case 8: topical treatment of a child
[3] = Case 1: topical treatment of a person
Excerpt: A diagnosis of periorbital dermatitis with lichenification was made and treatment using the formulation of Example 1 commenced.

| SMILES | outcome of previously tried treatments [1] | outcome of previously tried products [2] | outcome of previously used treatments [3] |
| --- | --- | --- | --- |
| Clc1ccccc1C(c1ccccc1)(c1ccccc1)n1ccnc1 [Clotrimazole] | None of the treatments gave them any long term results | no permanent improvement |  |
| C/C(=C\C(=O)OCCCCCCCCC(=O)O)C[C@@H]1OC[C@H](C[C@@H]2O[C@H]2[C@@H](C)[C@H](C)O)[C@@H](O)[C@H]1O [Mupirocin (2% w/w), Mupirocin] | None of the treatments gave them any long term results |  |  |
| CCC(=O)O[C@]1(C(=O)COC(C)=O)CC[C@H]2[C@@H]3C[C@H](C)C4=CC(=O)C=C[C@]4(C)[C@H]3[C@@H](O)C[C@@]21C [Methylprednisolone aceponate] |  | no permanent improvement |  |
| CCC(=O)OCC(=O)[C@@]1(OC(=O)CC)[C@@H](C)C[C@H]2[C@@H]3CCC4=CC(=O)C=C[C@]4(C)[C@@]3(F)[C@@H](O)C[C@@]21C [Betamethasone dipropionate 0.05%, Betamethasone dipropionate] |  | no permanent improvement |  |
| CN(C/C=C/C#CC(C)(C)C)Cc1cccc2ccccc12 [Terbinafine Hydrochloride 1.0%, Terbinafine Hydrochloride] | None of the treatments gave them any long term results | no permanent improvement | no long term improvement |
| CC(=O)OCC(=O)[C@@]1(O)CC[C@H]2[C@@H]3CCC4=CC(=O)CC[C@]4(C)[C@H]3[C@@H](O)C[C@@]21C [Hydrocosrtisone acetate 1%, Hydrocosrtisone acetate] |  | no permanent improvement | no long term improvement |
| C[C@@H]1C[C@H]2[C@@H]3CCC4=CC(=O)C=C[C@]4(C)[C@@]3(Cl)[C@@H](O)C[C@]2(C)[C@@]1(OC(=O)c1ccco1)C(=O)CCl [Mometasone Furoate 0.1%, Mometasone Furoate] | None of the treatments gave them any long term results |  | no long term improvement |
